Experimental data published in US20170190671A1, “BIS(ARYL)CATECHOL DERIVATIVES AS HERBICIDES” (E I DU PONT DE NEMOURS AND COMPANY, priority 2014, published 2017).

Key:
Conditions in all cases: scale 0 to 100
[1] = system: winter wheat (Triticum aestivum); test: Test D postemergence; format: in vivo
Outline: (§1)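 Ratings of 0–100 reflect visual comparison with control plants at 14 to 21 days. For preemergence, compound was sprayed on silt loam just after sowing; for postemergence, on plants 2 to 18 cm in height.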

[2] = system: bluegrass (annual bluegrass, Poa annua); test: Test D postemergence; format: in vivo
Outline: as §1

[3] = system: green foxtail (Setaria viridis); test: Test D postemergence; format: in vivo
Outline: as §1

[4] = system: galium (catchweed bedstraw, Galium aparine); test: Test D postemergence; format: in vivo
Outline: as §1

[5] = system: Russian thistle (Salsola kali); test: Test D postemergence; format: in vivo
Outline: as §1

[6] = system: chamomile (scentless chamomile, Matricaria inodora); test: Test D postemergence; format: in vivo
Outline: as §1

[7] = system: Italian ryegrass (Lolium multiflorum); test: Test D postemergence; format: in vivo
Outline: as §1

[8] = system: windgrass (Apera spica-venti); test: Test D postemergence; format: in vivo
Outline: as §1

[9] = system: wild mustard (Sinapis arvensis); test: Test D postemergence; format: in vivo
Outline: as §1

[10] = system: downy bromegrass (Bromus tectorum); test: Test D postemergence; format: in vivo
Outline: as §1

[11] = system: oilseed rape (Brassica napus); test: Test D postemergence; format: in vivo
Outline: as §1

[12] = system: field poppy (Papaver rhoeas); test: Test D postemergence; format: in vivo
Outline: as §1

wild oat (Avenafatua) = test: Test D preemergence; format: in vivo, Avena fatua
Text: Seeds of plant species selected from bluegrass (annual bluegrass, Poa annua), blackgrass (Alopecurus myosuroides), canarygrass (Phalaris minor), chickweed (common chickweed, Stellaria media), cutleaf geranium (Geranium dissectum), galium (catchweed bedstraw, Galium aparine), downy bromegrass (Bromus tectorum), field poppy (Papaver rhoeas), field violet (Viola arvensis), green foxtail (Setaria viridis), deadnettle (henbit deadnettle, Lamium amplexicaule), Italian ryegrass (Lolium multiflorum), kochia (Kochia scoparia), lambsquarters (Chenopodium album), oilseed rape (Brassica napus), pigweed (Amaranthus retroflexus), chamomile (scentless chamomile, Matricaria inodora), Russian thistle (Salsola kali), speedwell (bird's-eye speedwell, Veronica persica), spring barley (Hordeum vulgare), spring wheat (Triticum aestivum), wild buckwheat (Polygonum convolvulus), wild mustard (Sinapis arvensis), wild oat (Avenafatua), wild radish (Raphanus raphanistrum), windgrass (Apera spica-venti), winter barley (Hordeum vulgare), and winter wheat (Triticum aestivum) were planted into a silt loam soil and treated preemergence with test chemicals formulated in a non-phytotoxic solvent mixture which included a surfactant.
At the same time, these species were planted in pots containing Redi-Earth® planting medium (Scotts Company, 14111 Scottslawn Road, Marysville, Ohio 43041) comprising spaghnum peat moss, vermiculite, wetting agent and starter nutrients and treated with postemergence applications of the test chemicals formulated in the same manner. Plants ranged in height from 2 to 18 cm (1- to 4-leaf stage). Treated plants and controls were maintained in a controlled growth environment for 14 to 21 days after which time all species were compared to controls and visually evaluated. Plant response ratings, summarized in Table D, are based on a scale of 0 to 100 where 0 is no effect and 100 is complete control. A dash (-) response means no test result.

[13] = system: arrowleaf sida (Sida rhombifolia); test: Test E postemergence; format: in vivo
Text: Seeds of plant species selected from corn (Zea mays), soybean (Glycine max), velvetleaf (Abutilon theophrasti), cocklebur (common cocklebur, Xanthium strumarium), lambsquarters (Chenopodium album), wild poinsettia (Euphorbia heterophylla), palmer pigweed (Amaranthus palmeri), waterhemp (common waterhemp, Amaranthus rudis), surinam grass (Brachiaria decumbens), large (Lg) crabgrass (Digitaria sanguinalis), Brazilian crabgrass (Digitaria horizontalis), fall panicum (Panicum dichotomiflorum), giant foxtail (Setaria faberii), green foxtail (Setaria viridis), goosegrass (Eleusine indica), johnsongrass (Sorghum halepense), ragweed (common ragweed, Ambrosia elatior), barnyardgrass (Echinochloa crus-galli), sandbur (southern sandbur, Cenchrus echinatus), arrowleaf sida (Sida rhombifolia), Italian ryegrass (Lolium multiflorum), dayflower (Virginia (VA) dayflower, Commelina virginica), field bindweed (Convolvulus arvensis), morningglory (Ipomoea coccinea), nightshade (eastern black nightshade, Solanum ptycanthum), kochia (Kochia scoparia), yellow nutsedge (Cyperus esculentus), horseweed (Conyza canadensis), and hairy beggarticks (Bidens pilosa), were planted into a silt loam soil and treated preemergence with test chemicals formulated in a non-phytotoxic solvent mixture which included a surfactant.
At the same time, plants from these crop and weed species and also waterhemp_RES1, (ALS & Triazine resistant common waterhemp, Amaranthus rudis), and waterhemp_RES2, (ALS & HPPD resistant common waterhemp, Amaranthus rudis) were planted in pots containing Redi-Earth® planting medium (Scotts Company, 14111 Scottslawn Road, Marysville, Ohio 43041) comprising spaghnum peat moss, vermiculite, wetting agent and starter nutrients were treated with postemergence applications of test chemicals formulated in the same manner. Plants ranged in height from 2 to 18 cm for postemergence treatments (1- to 4-leaf stage). Treated plants and controls were maintained in a greenhouse for 14 to 21 days, after which time all species were compared to controls and visually evaluated. Plant response ratings, summarized in Table E, are based on a scale of 0 to 100 where 0 is no effect and 100 is complete control. A dash (-) response means no test result.

Structure (SMILES): Fc1cnc(Oc2c(F)cccc2Oc2ncc(Cl)cn2)nc1 [Compound 23]
- Plant response rating, Wheat, Winter ([1]; 16 g ai/ha): 0
- Plant response rating, Wheat, Winter ([1]; 31 g ai/ha): 0
- Plant response rating, Wheat, Winter ([1]; 62 g ai/ha): 0
- Plant response rating, Wheat, Winter ([1]; 125 g ai/ha): 0
- Plant response rating, Bluegrass ([2]; 16 g ai/ha): 5
- Plant response rating, Bluegrass ([2]; 31 g ai/ha): 10
- Plant response rating, Bluegrass ([2]; 62 g ai/ha): 15
- Plant response rating, Bluegrass ([2]; 125 g ai/ha): 35
- Plant response rating, Foxtail, Green ([3]; 16 g ai/ha): 10
- Plant response rating, Foxtail, Green ([3]; 31 g ai/ha): 10
- Plant response rating, Foxtail, Green ([3]; 62 g ai/ha): 15
- Plant response rating, Foxtail, Green ([3]; 125 g ai/ha): 20
- Plant response rating, Galium ([4]; 16 g ai/ha): 65
- Plant response rating, Galium ([4]; 31 g ai/ha): 70
- Plant response rating, Galium ([4]; 62 g ai/ha): 85
- Plant response rating, Galium ([4]; 125 g ai/ha): 85
- Plant response rating, Russian Thistle ([5]; 16 g ai/ha): 0
- Plant response rating, Russian Thistle ([5]; 31 g ai/ha): 5
- Plant response rating, Russian Thistle ([5]; 62 g ai/ha): 10
- Plant response rating, Russian Thistle ([5]; 125 g ai/ha): 15
- Plant response rating, Chamomile ([6]; 16 g ai/ha): 0
- Plant response rating, Chamomile ([6]; 31 g ai/ha): 0
- Plant response rating, Chamomile ([6]; 62 g ai/ha): 0
- Plant response rating, Chamomile ([6]; 125 g ai/ha): 5
- Plant response rating, Ryegrass, Italian ([7]; 16 g ai/ha): 0
- Plant response rating, Ryegrass, Italian ([7]; 31 g ai/ha): 5
- Plant response rating, Ryegrass, Italian ([7]; 62 g ai/ha): 10
- Plant response rating, Ryegrass, Italian ([7]; 125 g ai/ha): 25
- Plant response rating, Windgrass ([8]; 16 g ai/ha): 10
- Plant response rating, Windgrass ([8]; 31 g ai/ha): 10
- Plant response rating, Windgrass ([8]; 62 g ai/ha): 15
- Plant response rating, Windgrass ([8]; 125 g ai/ha): 20
- Plant response rating, Mustard, Wild ([9]; 16 g ai/ha): 25
- Plant response rating, Mustard, Wild ([9]; 31 g ai/ha): 35
- Plant response rating, Mustard, Wild ([9]; 62 g ai/ha): 65
- Plant response rating, Mustard, Wild ([9]; 125 g ai/ha): 95
- Plant response rating, Bromegrass, Downy ([10]; 16 g ai/ha): 5
- Plant response rating, Bromegrass, Downy ([10]; 31 g ai/ha): 10
- Plant response rating, Bromegrass, Downy ([10]; 62 g ai/ha): 20
- Plant response rating, Bromegrass, Downy ([10]; 125 g ai/ha): 25
- Plant response rating, Oilseed Rape ([11]; 16 g ai/ha): 30
- Plant response rating, Oilseed Rape ([11]; 31 g ai/ha): 65
- Plant response rating, Oilseed Rape ([11]; 62 g ai/ha): 75
- Plant response rating, Oilseed Rape ([11]; 125 g ai/ha): 95
- Plant response rating, Field Poppy ([12]; 16 g ai/ha): 50
- Plant response rating, Field Poppy ([12]; 31 g ai/ha): 70
- Plant response rating, Field Poppy ([12]; 62 g ai/ha): 75
- Plant response rating, Field Poppy ([12]; 125 g ai/ha): 80
- Plant response rating, Oat, Wild (wild oat (Avenafatua); 16 g ai/ha): 5
- Plant response rating, Oat, Wild (wild oat (Avenafatua); 31 g ai/ha): 15
- Plant response rating, Oat, Wild (wild oat (Avenafatua); 62 g ai/ha): 70
- Plant response rating, Oat, Wild (wild oat (Avenafatua); 125 g ai/ha): 98

Structure (SMILES): FC(F)(F)c1cnc(Oc2c(Br)cccc2Oc2ncc(Cl)cn2)nc1 [Compound 24]
- Plant response rating, Wheat, Winter ([1]; 16 g ai/ha): 10
- Plant response rating, Wheat, Winter ([1]; 31 g ai/ha): 10
- Plant response rating, Wheat, Winter ([1]; 62 g ai/ha): 15
- Plant response rating, Wheat, Winter ([1]; 125 g ai/ha): 15
- Plant response rating, Bluegrass ([2]; 16 g ai/ha): 15
- Plant response rating, Bluegrass ([2]; 31 g ai/ha): 20
- Plant response rating, Bluegrass ([2]; 62 g ai/ha): 35
- Plant response rating, Bluegrass ([2]; 125 g ai/ha): 40
- Plant response rating, Foxtail, Green ([3]; 16 g ai/ha): 15
- Plant response rating, Foxtail, Green ([3]; 31 g ai/ha): 15
- Plant response rating, Foxtail, Green ([3]; 62 g ai/ha): 20
- Plant response rating, Foxtail, Green ([3]; 125 g ai/ha): 30
- Plant response rating, Galium ([4]; 16 g ai/ha): 40
- Plant response rating, Galium ([4]; 31 g ai/ha): 70
- Plant response rating, Galium ([4]; 62 g ai/ha): 85
- Plant response rating, Galium ([4]; 125 g ai/ha): 90
- Plant response rating, Russian Thistle ([5]; 16 g ai/ha): 10
- Plant response rating, Russian Thistle ([5]; 31 g ai/ha): 25
- Plant response rating, Russian Thistle ([5]; 62 g ai/ha): 30
- Plant response rating, Russian Thistle ([5]; 125 g ai/ha): 55
- Plant response rating, Chamomile ([6]; 16 g ai/ha): 5
- Plant response rating, Chamomile ([6]; 31 g ai/ha): 5
- Plant response rating, Chamomile ([6]; 62 g ai/ha): 10
- Plant response rating, Chamomile ([6]; 125 g ai/ha): 15
- Plant response rating, Ryegrass, Italian ([7]; 16 g ai/ha): 15
- Plant response rating, Ryegrass, Italian ([7]; 31 g ai/ha): 20
- Plant response rating, Ryegrass, Italian ([7]; 62 g ai/ha): 25
- Plant response rating, Ryegrass, Italian ([7]; 125 g ai/ha): 35
- Plant response rating, Windgrass ([8]; 16 g ai/ha): 10
- Plant response rating, Windgrass ([8]; 31 g ai/ha): 15
- Plant response rating, Windgrass ([8]; 62 g ai/ha): 25
- Plant response rating, Windgrass ([8]; 125 g ai/ha): 35
- Plant response rating, Mustard, Wild ([9]; 16 g ai/ha): 50
- Plant response rating, Mustard, Wild ([9]; 31 g ai/ha): 80
- Plant response rating, Mustard, Wild ([9]; 62 g ai/ha): 70
- Plant response rating, Mustard, Wild ([9]; 125 g ai/ha): 85
- Plant response rating, Bromegrass, Downy ([10]; 16 g ai/ha): 15
- Plant response rating, Bromegrass, Downy ([10]; 31 g ai/ha): 20
- Plant response rating, Bromegrass, Downy ([10]; 62 g ai/ha): 20
- Plant response rating, Bromegrass, Downy ([10]; 125 g ai/ha): 25
- Plant response rating, Oilseed Rape ([11]; 16 g ai/ha): 65
- Plant response rating, Oilseed Rape ([11]; 31 g ai/ha): 70
- Plant response rating, Oilseed Rape ([11]; 62 g ai/ha): 75
- Plant response rating, Oilseed Rape ([11]; 125 g ai/ha): 80
- Plant response rating, Field Poppy ([12]; 16 g ai/ha): 70
- Plant response rating, Field Poppy ([12]; 31 g ai/ha): 80
- Plant response rating, Field Poppy ([12]; 62 g ai/ha): 90
- Plant response rating, Field Poppy ([12]; 125 g ai/ha): 95
- Plant response rating, Oat, Wild (wild oat (Avenafatua); 16 g ai/ha): 0
- Plant response rating, Oat, Wild (wild oat (Avenafatua); 31 g ai/ha): 15
- Plant response rating, Oat, Wild (wild oat (Avenafatua); 62 g ai/ha): 25
- Plant response rating, Oat, Wild (wild oat (Avenafatua); 125 g ai/ha): 75

Structure (SMILES): N#Cc1cccc(Oc2ncc(Cl)cn2)c1Oc1ccc(Cl)cc1 [Compound 36]
- Plant response rating, Arrowleaf Sida ([13]; 16 g ai/ha): 70
- Plant response rating, Arrowleaf Sida ([13]; 31 g ai/ha): 70
- Plant response rating, Arrowleaf Sida ([13]; 62 g ai/ha): 80
- Plant response rating, Arrowleaf Sida ([13]; 125 g ai/ha): 85

Structure (SMILES): N#Cc1cccc(Oc2ncc(Cl)cn2)c1Oc1ncc(C(F)(F)F)cn1 [Compound 38, 3-[(5-chloro-2-pyrimidinyl)oxy]-2-[[5-(trifluoromethyl)-2-pyrimidinyl]oxy]-benzonitrile]
- Plant response rating, Arrowleaf Sida ([13]; 16 g ai/ha): 60
- Plant response rating, Arrowleaf Sida ([13]; 31 g ai/ha): 80
- Plant response rating, Arrowleaf Sida ([13]; 62 g ai/ha): 90
- Plant response rating, Arrowleaf Sida ([13]; 125 g ai/ha): 90
